Like-named read-outs stand apart in the source and are kept apart here. Where no end group is shown, it is not given here.
Experiments:
[1] = molecular target: T1, PDZ protein Rim2 (Homo sapiens, UniProt Q9UQ26); assay: PRISM Matrix ELISA modified G assay (pre-incubation), peptide titration; details: read-out: EC50 of binding to the PDZ protein Rim2
T1 construct: made in house
T1 sequence (Q9UQ26 632-757): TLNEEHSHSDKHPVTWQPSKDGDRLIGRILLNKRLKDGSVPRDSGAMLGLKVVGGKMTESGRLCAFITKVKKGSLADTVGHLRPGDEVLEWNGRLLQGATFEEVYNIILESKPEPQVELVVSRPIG
Experimental: (§1) Two different types of ELISA assays were used to test the HIV Peptides 1904 and 1905. The primary MATRIX screen against all PDZ proteins in the library was performed under pre-incubation conditions, which are a modification of the G assay. A pre-incubation assay incubates the peptide with the HRP-streptavidin before addition of the mixture to the PDZ-coated plate. The subsequent titrations of the peptide against the PDZs of interest were performed under normal ELISA G assay conditions. In normal conditions the peptide is incubated on the PDZ coated plate before the later addition of the HRP-streptavidin. The reagents and supplies for both assays are listed below, as well as the two different protocols.
(§2) The PRISM Matrix ELISA modified G Assay was also used for pre-incubation and for the MATRIX assay. The protocol was as follows.
(§3) 1. Coat plate with 100 μl of 5 μg/ml anti-GST, O/N @ 4° C.
(§4) 2. Dump contents out of plate and tap dry on paper towels
(§5) 3. Block with 200 μl Assay Buffer for 1 to 2 hrs at room temperature
(§6) 4. Prepare proteins in Assay Buffer
(§7) 5. Wash plate 3× with cold PBS*
(§8) 6. Add proteins at 50 μl per well, incubate 1 to 2 hrs at 4° C.
(§9) 7. Prepare peptides in Assay Buffer:
(§10) • Prepare peptides in half of volume need with double of desired concentration. • Dilute HRP (1:1000) in another half of volume (same volume with peptide) then mix with peptides. • Incubate the peptide-HRP mixtures for 20 minutes at RT 8. Wash plate 3× with cold PBS* 9. Add peptide-HRP mixtures at 50 μl per well (write time on plate) 10. Incubate at RT after last peptide has been added for exactly 30 minutes 11. Turn on plate reader and prepare files 12. Promptly wash plate 5× with room temperature PBS 13. Add 100 μl/well TMB substrate (write time on plate) 14. Incubate in dark at room temp for a maximum of 30 minutes 15. Stop reaction with 100 μl of 0.18M H2SO4, 30 min. after adding TMB 16. Take last reading at 450 nm soon after stopping reaction

[2] = molecular target: T2, PDZ protein NSP (Homo sapiens, UniProt Q92743); assay: as above; details: read-out: EC50 of binding to the PDZ protein NSP
T2 construct: made in house
T2 sequence (Q92743 359-473): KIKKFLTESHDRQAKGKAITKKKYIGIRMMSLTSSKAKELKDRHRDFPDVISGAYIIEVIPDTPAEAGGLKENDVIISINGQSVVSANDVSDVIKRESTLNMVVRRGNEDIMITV
Experimental: as §1, §2, §3, §4, §5, §6, §7, §8, §9, §10

[3] = molecular target: T3, PDZ protein ZO-1 d2 (domain 2) (Homo sapiens, UniProt Q07157, DEL264-264); assay: as above; details: read-out: EC50 of binding to the PDZ protein ZO-1 d2
T3 construct: made in house
T3 sequence (Q07157 with tags, fused parts or gaps DEL264-264): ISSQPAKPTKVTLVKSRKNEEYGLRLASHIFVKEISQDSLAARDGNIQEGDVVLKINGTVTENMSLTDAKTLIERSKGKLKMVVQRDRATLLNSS
Experimental: as §1, §2, §3, §4, §5, §6, §7, §8, §9, §10

[4] = molecular target: T4, PAR3 d3 (Homo sapiens, UniProt Q8TEW0, R682S); assay: MATRIX screen against PDZ library (modified G assay); assay type: binding; details: pre-incubation conditions
T4 construct: made in house
T4 sequence (Q8TEW0 with tags, fused parts or gaps R682S): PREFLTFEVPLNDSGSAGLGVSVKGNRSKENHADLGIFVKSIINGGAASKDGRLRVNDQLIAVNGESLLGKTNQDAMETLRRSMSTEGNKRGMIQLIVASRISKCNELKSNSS
Experimental: (§11) Matrix graphPeptides and proteins were tested in an array format constituting a near complete set (255) of all the different PDZ domains in the human genome. Each PDZ domain polypeptide was expressed as a recombinant GST-PDZ polypeptide in a commercial glutathione S-transferase tagged expression system. Specific binding of biotinylated-PL peptides to PDZ domain polypeptides was detected using streptavidin-HRP and TMB substrate. Similarly, specific binding of PL protein-MBP fusion proteins to PDZ domain polypeptides was visualized using biotinylated anti-MBP, streptavidin-HRP and TMB substrate. The relative strength of binding was analyzed and the strong and weak binders are shown for each PL. A PDZ protein that binds more strongly is preferable when used for capturing or identifying PL proteins.
as §1, §2, §3, §4, §5, §6, §7, §8, §9, §10

[5] = molecular target: T5, NSP (Homo sapiens, UniProt Q92743); assay: as above; assay type: binding; details: pre-incubation conditions
T5 construct: made in house
T5 sequence (Q92743 359-473): as the sequence (Q92743 359-473) above
Experimental: as §11, §1, §2, §3, §4, §5, §6, §7, §8, §9, §10

[6] = molecular target: T6, KIAA1284 (Homo sapiens, UniProt Q9ULD6); assay: as above; assay type: binding; details: pre-incubation conditions
T6 construct: made in house
T6 sequence (Q9ULD6 159-271): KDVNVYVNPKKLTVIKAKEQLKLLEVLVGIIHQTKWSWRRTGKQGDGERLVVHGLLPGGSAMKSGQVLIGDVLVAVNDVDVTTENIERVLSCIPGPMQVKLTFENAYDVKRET
Experimental: as §11, §1, §2, §3, §4, §5, §6, §7, §8, §9, §10

[7] = molecular target: T7, SIP1 d1 (Homo sapiens, UniProt Q15599); assay: as above; assay type: binding; details: pre-incubation conditions
T7 construct: made in house
T7 sequence (Q15599 with tags, fused parts or gaps): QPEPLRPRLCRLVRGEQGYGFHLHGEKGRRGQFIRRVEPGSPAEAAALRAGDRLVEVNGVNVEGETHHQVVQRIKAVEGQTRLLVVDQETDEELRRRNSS
Experimental: as §11, §1, §2, §3, §4, §5, §6, §7, §8, §9, §10

[8] = molecular target: T8, MAST2 (Homo sapiens, UniProt Q6P0Q8); assay: as above; assay type: binding; details: pre-incubation conditions
T8 construct: made in house
T8 sequence (Q6P0Q8 with tags, fused parts or gaps): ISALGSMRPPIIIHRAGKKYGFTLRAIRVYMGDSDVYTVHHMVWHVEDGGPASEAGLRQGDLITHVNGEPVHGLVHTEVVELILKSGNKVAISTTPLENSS
Experimental: as §11, §1, §2, §3, §4, §5, §6, §7, §8, §9, §10

[9] = modified G assay titration (FIG. 2C, FIG. 3C)
[10] = modified G assay titration (FIG. 2D, FIG. 3D)
[11] = modified G assay titration (FIG. 2B, FIG. 3B)

Substance	EC50 [1, 9]	EC50 ([1]; modified G assay titration, third experiment (FIG. 5, printed as FIG. 3C))	EC50 [2, 10]	EC50 ([2]; modified G assay titration, third experiment (FIG. 5, printed as FIG. 3D))	EC50 [3, 11]	EC50 ([3]; modified G assay titration, third experiment (FIG. 5B))	Intensity of Hit, PDZ PAR3 d3 [4]	Intensity of Hit, PDZ NSP [5]	Intensity of Hit, PDZ KIAA1284 [6]	Intensity of Hit, PDZ SIP1 d1 [7]	Intensity of Hit, PDZ MAST2 [8]
YGRKKRRQRRRRQGFERALL-OH [Peptide 1905]	0.014 µM	0.068 µM	0.008 µM	0.03 µM	0.0028 µM	0.036 µM	STRONG	STRONG	STRONG	STRONG	STRONG
YGRKKRRQRRRRQGLERILL-OH [Peptide 1904]	0.03 µM		0.0149 µM		0.025 µM		STRONG	STRONG	STRONG	WEAK	STRONG
